This experiment deals with Müller glial cells. As to the kind of experiment: Osmotic Müller cell swelling in acutely isolated retinal slices under hypotonic challenge. The conditions noted are these: for effect on osmotic swelling of Müller cells (FIG. 3C): hypotonic challenge. It counts as cell-based, mouse. The protocol:
Müller cell swelling: To determine volume changes of Müller glial cells evoked by hypotonic stress, the cross-sectional area of glial cell somata in the inner nuclear layer of retinal slices was measured. Acutely isolated slices (thickness, 1 mm) were prepared from untreated control eyes and from the detached retinal area of operated eyes from C57BL/6 and Dp71-null mice, placed in a perfusion chamber and loaded with the vital dye Mitotracker Orange (10 μM). This dye is selectively taken up by Müller glial cells whereas retinal neurons, astrocytes, and microglial cells remain unstained. The stock solution of the dye was prepared in dimethylsulfoxide and resolved in saline. The slices were examined with a confocal laser scanning microscope LSM 510 Meta (Zeiss, Oberkochen, Germany). Mitotracker Orange was excited at 543 nm, and emission was recorded with a 560 nm long-pass filter. To assure that the maximum soma areas were precisely recorded, the focal plane was continuously adjusted in the course of the experiments.
A gravity-fed system with multiple reservoirs was used to perfuse the recording chamber continuously with extracellular solution; the hypotonic solution and test substances were added by rapid change of the perfusate. The extracellular solution consisted of (in mM) […], 3 KCl, 2 CaCl2, 1 MgCl2, 10 HEPES, and 11 glucose, adjusted to pH 7.4 with Tris. The hypotonic solution (60% of control osmolarity) was made up by adding distilled water. BaCl2 (1 mM) was preincubated for 10 minutes in extracellular solution before application within hypotonic solution. Blocking substances were preincubated for 15 to 45 minutes, and adenosine was administered simultaneously with the hypotonic solution. Swelling experiments were performed at room temperature.
To determine the extent of glial soma swelling, the cross-sectional area of Mitotracker Orange-stained cell bodies in the inner nuclear layer of retinal slices was measured off-line using the image analysis software of the LSM. Bar diagrams display the mean (+SEM) cross-sectional area of cell somata that was measured after 4-minute perfusion with hypotonic solution, in percent of the soma area measured before osmotic challenge (100%).

Setting [1] is: control retina from Dp71-null mice.

Turning to `O=C(CBr)c1ccc(Br)cc1` [4-bromophenacyl bromide], the “cross-sectional area of Müller cell somata after 4-minute perfusion with hypotonic solution, in percent of the soma area before osmotic challenge” value (Müller cells from Dp71-null mice, 300 μM, preincubated, hypotonic solution 60% of control osmolarity) is reported as 103.3±2.1%. For the same compound, the “effect on osmotic swelling of Müller cells (FIG. 3C)” value (“effect on osmotic swelling” below) under setting [1] was “blocked the swelling”.

Take `[Ba+2].[Cl-].[Cl-]` [Ba^2+, barium chloride]: the “effect on Müller cell soma area under hypotonic challenge (FIG. 3B)” value is, setting by setting: under setting [1], “no effect”; (control retina from wt mice) “induced a swelling”. For the same compound, the “cross-sectional area of Müller cell somata after 4-minute perfusion with hypotonic solution, in percent of the soma area before osmotic challenge” value is listed as 111.5±1.6% (slices from control retinas of C57BL/6 (wt) mice, BaCl2 1 mM, 102.0±1.0% without Ba2+) and 122.3+3.6% (untreated Dp71-null mice, BaCl2 1 mM, 118.0±2.3% without Ba2+).

Turning to `Nc1ncnc2c1ncn2[C@@H]1O[C@H](CO)[C@@H](O)[C@H]1O` [adenosine], the “effect on osmotic swelling” value under setting [1] was “blocked the swelling”. Further, the “cross-sectional area of Müller cell somata after 4-minute perfusion with hypotonic solution, in percent of the soma area before osmotic challenge” value (untreated retinas from Dp71-null mice, adenosine 10 μM applied with the hypotonic solution (60% of control osmolarity), 120.3±3.8% without adenosine) was determined as 103.2±2.2%.

As for `COc1ccc2c(c1)c(CC(=O)O)c(C)n2C(=O)c1ccc(Cl)cc1` [indomethacin], where the note is “Müller cells from Dp71-null mice, 10 μM, preincubated, hypotonic solution 60% of control osmolarity”, the “cross-sectional area of Müller cell somata after 4-minute perfusion with hypotonic solution, in percent of the soma area before osmotic challenge” value worked out at 104.4±1.6%. The “effect on osmotic swelling” value under setting [1] is recorded as “blocked the swelling”.

The values are drawn from patent US20120142609A1, “NON HUMAN ANIMAL MODELS FOR INCREASED RETINAL VASCULAR PERMEABILITY” (priority 2009, published 2012).
